# Measurements: PubChem BioAssay (NCI)
#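 Each compound was tested at five concentrations against cells in 96-well plates for 48 hours. GI50 = concentration required for 50% inhibition of growth. The concentration for full growth arrest is given as TGI.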
# What was measured:
# Experiment in all cases: growth of human tumour cells (NCI), 48 h
# [1] = test system: K-562 leukemia
# [2] = test system: SK-MEL-28 melanoma
# [3] = test system: RXF 393 renal
# [4] = test system: A549 NSCLC
# [5] = test system: CCRF-CEM leukemia
# [6] = test system: MALME-3M melanoma
# [7] = test system: ACHN renal
# [8] = test system: U251 CNS
# [9] = test system: UACC-62 melanoma
# [10] = test system: SN12C renal
# [11] = test system: COLO 205 colon
# [12] = test system: HCC-2998 colon
# [13] = test system: TK-10 renal
# [14] = test system: NCI-H522 lung
# [15] = test system: OVCAR-3 ovarian
# [16] = test system: SW-620 colon
# [17] = test system: M14 melanoma
# [18] = test system: BT-549 breast
# [19] = test system: MDA-MB-435
# [20] = test system: SF-295 CNS
# [21] = test system: 786-0 renal
# [22] = test system: RPMI-8226 leukemia
# [23] = test system: NCI-H23 lung
# [24] = test system: OVCAR-5 ovarian
# [25] = test system: SK-MEL-5 melanoma
# [26] = test system: UO-31 renal
# [27] = test system: T-47D breast
# [28] = test system: OVCAR-8 ovarian
# [29] = test system: NCI/ADR-RES ovarian
# [30] = test system: SK-OV-3 ovarian
# [31] = test system: SF-539 CNS
# [32] = test system: SNB-19 CNS
# [33] = test system: NCI-H460 lung
# [34] = test system: UACC-257 melanoma
# [35] = test system: HCT-116 colon
# [36] = test system: HCT-15 colon
# [37] = test system: HS 578T breast
# [38] = test system: HT29 colon
# [39] = test system: MOLT-4 leukemia
# [40] = test system: SF-268 CNS
# [41] = test system: SR leukemia
# [42] = test system: NCI-H226 lung
# [43] = test system: OVCAR-4 ovarian
# [44] = test system: PC-3 prostate
# [45] = test system: KM12 colon
# [46] = test system: HOP-62 NSCLC
# [47] = test system: CAKI-1 renal
# [48] = test system: MDA-MB-231 breast
# [49] = test system: MCF7 breast
# [50] = test system: DU-145 prostate
# [51] = test system: HL-60(TB) leukemia
# [52] = test system: SNB-75 CNS
# [53] = test system: A498 renal
# [54] = test system: IGROV1 ovarian
compound,measurement,setting,value
COc1ccc(CCc2nc3cc(-c4c(C)noc4C)ccc3n2CCN2CCOCC2)cc1,GI50,[1],19.9 µM
same,TGI,[1],> 100 µM
same,GI50,[2],39.5 µM
same,TGI,[2],> 100 µM
same,GI50,[3],18.7 µM
same,TGI,[3],82.4 µM
same,GI50,[4],45 µM
same,TGI,[4],> 100 µM
same,GI50,[5],26.9 µM
same,TGI,[5],> 100 µM
same,GI50,[6],6.64 µM
same,TGI,[6],> 100 µM
same,GI50,[7],25.9 µM
same,TGI,[7],> 100 µM
same,GI50,[8],38.7 µM
same,TGI,[8],> 100 µM
same,GI50,[9],11.1 µM
same,TGI,[9],> 100 µM
same,GI50,[10],34.9 µM
same,TGI,[10],> 100 µM
same,GI50,[11],12.7 µM
same,TGI,[11],> 100 µM
same,GI50,[12],19.9 µM
same,TGI,[12],97.5 µM
same,GI50,[13],10.1 µM
same,TGI,[13],> 100 µM
same,GI50,[14],12.4 µM
same,TGI,[14],69.4 µM
same,GI50,[15],20.3 µM
same,TGI,[15],59.8 µM
same,GI50,[16],58.1 µM
same,TGI,[16],> 100 µM
same,GI50,[17],21.6 µM
same,TGI,[17],> 100 µM
same,GI50,[18],40.5 µM
same,TGI,[18],> 100 µM
same,GI50,[19],14.9 µM
same,TGI,[19],> 100 µM
same,GI50,[20],23 µM
same,TGI,[20],> 100 µM
same,GI50,[21],24.4 µM
same,TGI,[21],> 100 µM
same,GI50,[22],6.12 µM
same,TGI,[22],49.4 µM
same,GI50,[23],45.3 µM
same,TGI,[23],> 100 µM
same,GI50,[24],71.8 µM
same,TGI,[24],> 100 µM
same,GI50,[25],13.4 µM
same,TGI,[25],43.8 µM
same,GI50,[26],2.49 µM
same,TGI,[26],> 100 µM
same,GI50,[27],16.1 µM
same,TGI,[27],> 100 µM
same,GI50,[28],35.9 µM
same,TGI,[28],> 100 µM
same,GI50,[29],27.9 µM
same,TGI,[29],> 100 µM
same,GI50,[30],26 µM
same,TGI,[30],> 100 µM
same,GI50,[31],34.6 µM
same,TGI,[31],> 100 µM
same,GI50,[32],35.5 µM
same,TGI,[32],> 100 µM
same,GI50,[33],65.1 µM
same,TGI,[33],> 100 µM
same,GI50,[34],13.6 µM
same,TGI,[34],> 100 µM
same,GI50,[35],29.4 µM
same,TGI,[35],> 100 µM
same,GI50,[36],12.5 µM
same,TGI,[36],> 100 µM
same,GI50,[37],9.16 µM
same,TGI,[37],> 100 µM
same,GI50,[38],13.7 µM
same,TGI,[38],> 100 µM
same,GI50,[39],34.5 µM
same,TGI,[39],> 100 µM
same,GI50,[40],41.6 µM
same,TGI,[40],> 100 µM
same,GI50,[41],7.01 µM
same,TGI,[41],> 100 µM
same,GI50,[42],31.1 µM
same,TGI,[42],> 100 µM
same,GI50,[43],5.28 µM
same,TGI,[43],> 100 µM
same,GI50,[44],16.3 µM
same,TGI,[44],> 100 µM
same,GI50,[45],17.5 µM
same,TGI,[45],> 100 µM
same,GI50,[46],44.6 µM
same,TGI,[46],> 100 µM
same,GI50,[47],7.94 µM
same,TGI,[47],> 100 µM
same,GI50,[48],28.6 µM
same,TGI,[48],> 100 µM
same,GI50,[49],4.32 µM
same,TGI,[49],> 100 µM
same,GI50,[50],86.2 µM
same,TGI,[50],> 100 µM
same,GI50,[51],10.4 µM
same,TGI,[51],> 100 µM
same,GI50,[52],2.47 µM
same,TGI,[52],> 100 µM
same,GI50,[53],10.1 µM
same,TGI,[53],32.8 µM
same,GI50,[54],22.9 µM
same,TGI,[54],> 100 µM
